In the assay the target is T1, PLK1 (Homo sapiens, UniProt P53350).
T1 construct: endogenous in cells; host or cells: HeLa
Briefly: PLK1 protein degradation in HeLa cells, Western blotting (PLK1/GAPDH ratio). In kind it is cell-based. To be noted: for DC50 / Dmax: 6 hours compound incubation; for DC50: measured only if the grade of Dmax is A or B; for Dmax: thymidine block and release, 10 points three-fold from 3 μM, PLK1 to GAPDH ratio, read-out: Dmax. In outline:
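Thymidine-synchronised HeLa cells (2 mM, 24 h) released 4 h into complete medium, then treated 6 h with compound in 10-point 3-fold dilutions from 3 μM. RIPA lysates (15 μg protein) run on SDS-PAGE; PLK1 Western blot normalised to GAPDH.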

Structures are written as SMILES.

T1 sequence (P53350 whole entry): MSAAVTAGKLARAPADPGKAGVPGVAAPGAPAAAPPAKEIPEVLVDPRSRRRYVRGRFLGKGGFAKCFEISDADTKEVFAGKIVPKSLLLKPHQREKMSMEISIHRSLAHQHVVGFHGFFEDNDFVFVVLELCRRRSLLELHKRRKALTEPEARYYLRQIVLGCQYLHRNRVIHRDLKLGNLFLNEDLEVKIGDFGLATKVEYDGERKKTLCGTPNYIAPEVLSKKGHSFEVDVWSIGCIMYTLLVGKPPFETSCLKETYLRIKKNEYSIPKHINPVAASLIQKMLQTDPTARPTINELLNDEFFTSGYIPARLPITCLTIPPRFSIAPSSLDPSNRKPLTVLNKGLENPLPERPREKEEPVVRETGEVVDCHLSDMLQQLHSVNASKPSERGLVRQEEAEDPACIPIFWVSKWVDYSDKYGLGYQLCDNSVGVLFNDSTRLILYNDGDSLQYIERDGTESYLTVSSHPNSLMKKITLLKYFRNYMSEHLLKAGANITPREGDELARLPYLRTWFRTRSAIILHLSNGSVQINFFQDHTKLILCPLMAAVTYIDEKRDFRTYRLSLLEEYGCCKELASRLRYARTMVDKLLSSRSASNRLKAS

As for `COc1cc(C(=O)NC2CCN(CCOCCNC(=O)COc3cccc4c3C(=O)N(C3CCC(=O)NC3=O)C4=O)CC2)c(F)cc1Nc1ncc2c(n1)N(C1CCCC1)CC(F)(F)C(=O)N2C` (stereo not shown) [Compound 56, 4-((9-cyclopentyl-7,7-difluoro-5-methyl-6-oxo-6,7,8,9-tetrahydro-5H-pyrimido[4,5-b][1,4]diazepin-2-yl)amino)-N-(1-(2-(2-(2-((2-(2,6-dioxopiperidin-3-yl)-1,3-dioxoisoindolin-4-yl)oxy)acetamido)ethoxy)ethyl)piperidin-4-yl)-2-fluoro-5-methoxybenzamide], the 50% degradation concentration (DC50) is ≤ 500 nM and the maximal degradation (Dmax) fell in the range of 60 to 80%.
As for `COc1cc(C(=O)NC2CCN(CCCOCCCOCCCOCCNc3cccc4c3C(=O)N(C3CCC(=O)NC3=O)C4=O)CC2)c(F)cc1Nc1ncc2c(n1)N(C1CCCC1)CC(F)(F)C(=O)N2C` (stereo not shown) [Compound 24, 4-((9-cyclopentyl-7,7-difluoro-5-methyl-6-oxo-6,7,8,9-tetrahydro-5H-pyrimido[4,5-b][1,4]diazepin-2-yl)amino)-N-(1-(3-(3-(3-(2-((2-(2,6-dioxopiperidin-3-yl)-1,3-dioxoisoindolin-4-yl)amino)ethoxy)propoxy)propoxy)propyl)piperidin-4-yl)-2-fluoro-5-methoxybenzamide], the half-maximal degradation concentration (DC50) was ≤ 50 nM and the maximal degradation (Dmax) was ≥ 80%.
In the same order, the values of `COc1cc(C(=O)NC2CCN(C(=O)CCCCCNc3cccc4c3C(=O)N(C3CCC(=O)NC3=O)C4=O)C2)c(F)cc1Nc1ncc2c(n1)N(C1CCCC1)CC(F)(F)C(=O)N2C` (stereo not shown) [Compound 118, 4-((9-cyclopentyl-7,7-difluoro-5-methyl-6-oxo-6,7,8,9-tetrahydro-5H-pyrimido[4,5-b][1,4]diazepin-2-yl)amino)-N-(1-(6-((2-(2,6-dioxopiperidin-3-yl)-1,3-dioxoisoindolin-4-yl)amino)hexanoyl)pyrrolidin-3-yl)-2-fluoro-5-methoxybenzamide] are ≤ 50 nM and ≥ 80%.
The corresponding values for `COc1cc(C(=O)NC2CCN(CCCCCCCC(=O)Nc3cccc4c3C(=O)N(C3CCC(=O)NC3=O)C4=O)CC2)c(F)cc1Nc1ncc2c(n1)N(C1CCCC1)CC(F)(F)C(=O)N2C` (stereo not shown) [Compound 38, 4-((9-cyclopentyl-7,7-difluoro-5-methyl-6-oxo-6,7,8,9-tetrahydro-5H-pyrimido[4,5-b][1,4]diazepin-2-yl)amino)-N-(1-(8-((2-(2,6-dioxopiperidin-3-yl)-1,3-dioxoisoindolin-4-yl)amino)-8-oxooctyl)piperidin-4-yl)-2-fluoro-5-methoxybenzamide] are ≤ 500 nM and 60 to 80%.
In the same order, the values of `COc1cc(C(=O)NC2CCN(CCOCCOCCOCCOCCNc3ccc4c(c3)C(=O)N(C3CCC(=O)NC3=O)C4=O)CC2)c(F)cc1Nc1ncc2c(n1)N(C1CCCC1)CC(F)(F)C(=O)N2C` (stereo not shown) [Compound 51, 4-((9-cyclopentyl-7,7-difluoro-5-methyl-6-oxo-6,7,8,9-tetrahydro-5H-pyrimido[4,5-b][1,4]diazepin-2-yl)amino)-N-(1-(14-((2-(2,6-dioxopiperidin-3-yl)-1,3-dioxoisoindolin-5-yl)amino)-3,6,9,12-tetraoxatetradecyl)piperidin-4-yl)-2-fluoro-5-methoxybenzamide] are ≤ 50 nM and ≥ 80%.
On to `COc1cc(C(=O)NC2CCN(CCOCCOCCOCCOCC#Cc3cccc4c3C(=O)N(C3CCC(=O)NC3=O)C4=O)CC2)c(F)cc1Nc1ncc2c(n1)N(C1CCCC1)CC(F)(F)C(=O)N2C` (stereo not shown) [Compound 52, 4-((9-cyclopentyl-7,7-difluoro-5-methyl-6-oxo-6,7,8,9-tetrahydro-5H-pyrimido[4,5-b][1,4]diazepin-2-yl)amino)-N-(1-(15-(2-(2,6-dioxopiperidin-3-yl)-1,3-dioxoisoindolin-4-yl)-3,6,9,12-tetraoxapentadec-14-yn-1-yl)piperidin-4-yl)-2-fluoro-5-methoxybenzamide], for which the half-maximal degradation concentration (DC50) is ≤ 50 nM and the Dmax is ≥ 80%.
With `COc1cc(C(=O)NC2CCN(CCOCCOCCNc3cccc4c3C(=O)N(C3CCC(=O)NC3=O)C4=O)CC2)c(F)cc1Nc1ncc2c(n1)N(C1CCCC1)CC(F)(F)C(=O)N2C` (stereo not shown) [Compound 2, 4-((9-cyclopentyl-7,7-difluoro-5-methyl-6-oxo-6,7,8,9-tetrahydro-5H-pyrimido[4,5-b][1,4]diazepin-2-yl)amino)-N-(1-(2-(2-(2-((2-(2,6-dioxopiperidin-3-yl)-1,3-dioxoisoindolin-4-yl)amino)ethoxy)ethoxy)ethyl)piperidin-4-yl)-2-fluoro-5-methoxybenzamide], the DC50 was ≤ 50 nM and the Dmax was ≥ 80%. Besides, the “PLK1 protein degradability (western blot, FIG. 1 and 2)” value (in comparison with Comparative Compounds) is given as “excellent PLK1 protein degradability”.
On to `CN1C(=O)C(F)(F)CN(C2CCCC2)c2nc(Nc3ccc(C(=O)NC4CCN(C(=O)CCCNc5cccc6c5C(=O)N(C5CCC(=O)NC5=O)C6=O)CC4)cc3)ncc21` (stereo not shown) [Example 102, 4-((9-cyclopentyl-7,7-difluoro-5-methyl-6-oxo-6,7,8,9-tetrahydro-5H-pyrimido[4,5-b][1,4]diazepin-2-yl)amino)-N-(1-(4-((2-(2,6-dioxopiperidin-3-yl)-1,3-dioxoisoindolin-4-yl)amino)butanoyl)piperidin-4-yl)benzamide], for which the DC50 is ≤ 50 nM and the greatest degradation seen (Dmax) was ≥ 80%.
As for `COc1cc(C(=O)NC2CCN(CCOCCN(C)CCNc3cccc4c3C(=O)N(C3CCC(=O)NC3=O)C4=O)CC2)c(F)cc1Nc1ncc2c(n1)N(C1CCCC1)CC(F)(F)C(=O)N2C` (stereo not shown) [Compound 49, 4-((9-cyclopentyl-7,7-difluoro-5-methyl-6-oxo-6,7,8,9-tetrahydro-5H-pyrimido[4,5-b][1,4]diazepin-2-yl)amino)-N-(1-(2-(2-((2-((2-(2,6-dioxopiperidin-3-yl)-1,3-dioxoisoindolin-4-yl)amino)ethyl)(methyl)amino)ethoxy)ethyl)piperidin-4-yl)-2-fluoro-5-methoxybenzamide], the DC50 was ≤ 500 nM and the Dmax was in the range of 60 to 80%.
For the compound `COc1cc(C(=O)NC2CCN(Cc3cncc(CNC(=O)COc4cccc5c4C(=O)N(C4CCC(=O)NC4=O)C5=O)c3)CC2)c(F)cc1Nc1ncc2c(n1)N(C1CCCC1)CC(F)(F)C(=O)N2C` (stereo not shown) [Compound 62, 4-((9-cyclopentyl-7,7-difluoro-5-methyl-6-oxo-6,7,8,9-tetrahydro-5H-pyrimido[4,5-b][1,4]diazepin-2-yl)amino)-N-(1-((5-((2-((2-(2,6-dioxopiperidin-3-yl)-1,3-dioxoisoindolin-4-yl)oxy)acetamido)methyl)pyridin-3-yl)methyl)piperidin-4-yl)-2-fluoro-5-methoxybenzamide], the DC50 was ≤ 50 nM and the maximal degradation (Dmax) fell in the range of 60 to 80%.
The corresponding values for `COc1cc(C(=O)NC2CCN(CCC(=O)NCCCCCCCNC(=O)COc3cccc4c3C(=O)N(C3CCC(=O)NC3=O)C4=O)CC2)c(F)cc1Nc1ncc2c(n1)N(C1CCCC1)CC(F)(F)C(=O)N2C` (stereo not shown) [Compound 60, 4-((9-cyclopentyl-7,7-difluoro-5-methyl-6-oxo-6,7,8,9-tetrahydro-5H-pyrimido[4,5-b][1,4]diazepin-2-yl)amino)-N-(1-(3-((7-(2-((2-(2,6-dioxopiperidin-3-yl)-1,3-dioxoisoindolin-4-yl)oxy)acetamido)heptyl)amino)-3-oxopropyl)piperidin-4-yl)-2-fluoro-5-methoxybenzamide] are ≤ 50 nM and ≥ 80%.
The corresponding values for `COc1cc(C(=O)NC2CCN(CCOCCOCCNc3cccc4c3C(=O)N(C3CCC(=O)NC3=O)C4=O)CC2)ccc1Nc1ncc2c(n1)N(C1CCCC1)CC(F)(F)C(=O)N2C` (stereo not shown) [Example 96, 4-((9-cyclopentyl-7,7-difluoro-5-methyl-6-oxo-6,7,8,9-tetrahydro-5H-pyrimido[4,5-b][1,4]diazepin-2-yl)amino)-N-(1-(2-(2-(2-((2-(2,6-dioxopiperidin-3-yl)-1,3-dioxoisoindolin-4-yl)amino)ethoxy)ethoxy)ethyl)piperidin-4-yl)-3-methoxybenzamide] are ≤ 50 nM and ≥ 80%.
In the same order, the values of `COc1cc(C(=O)NC2CCN(CCOCCOCCOCCOCCNc3cccc4c3C(=O)N(C3CCC(=O)NC3=O)C4=O)CC2)c(F)cc1Nc1ncc2c(n1)N(C(C)C)CC(F)(F)C(=O)N2C` (stereo not shown) [Example 101, 4-((7,7-difluoro-9-isopropyl-5-methyl-6-oxo-6,7,8,9-tetrahydro-5H-pyrimido[4,5-b][1,4]diazepin-2-yl)amino)-N-(1-(14-((2-(2,6-dioxopiperidin-3-yl)-1,3-dioxoisoindolin-4-yl)amino)-3,6,9,12-tetraoxatetradecyl)piperidin-4-yl)-2-fluoro-5-methoxybenzamide] are ≤ 50 nM and ≥ 80%.
`CN1C(=O)C(F)(F)CN(C2CCCC2)c2nc(Nc3cc(F)c(C(=O)NC4CCN(CCOCCOCCNc5cccc6c5C(=O)N(C5CCC(=O)NC5=O)C6=O)CC4)cc3OC(F)(F)F)ncc21` (stereo not shown) [Example 99, 4-((9-cyclopentyl-7,7-difluoro-5-methyl-6-oxo-6,7,8,9-tetrahydro-5H-pyrimido[4,5-b][1,4]diazepin-2-yl)amino)-N-(1-(2-(2-(2-((2-(2,6-dioxopiperidin-3-yl)-1,3-dioxoisoindolin-4-yl)amino)ethoxy)ethoxy)ethyl)piperidin-4-yl)-2-fluoro-5-(trifluoromethoxy)benzamide]: the 50% degradation concentration (DC50) was ≤ 500 nM and the Dmax fell in the range of 60 to 80%.
In the same order, the values of `COc1cc(C(=O)N[C@@H]2CCN(C(=O)CCCCN3CCN(c4cccc5c4C(=O)N(C4CCC(=O)NC4=O)C5=O)CC3)C2)c(F)cc1Nc1ncc2c(n1)N(C1CCCC1)CC(F)(F)C(=O)N2C` (stereo partly drawn) [Compound 134, 4-((9-cyclopentyl-7,7-difluoro-5-methyl-6-oxo-6,7,8,9-tetrahydro-5H-pyrimido[4,5-b][1,4]diazepin-2-yl)amino)-N-((3R)-1-(5-(4-(2-(2,6-dioxopiperidin-3-yl)-1,3-dioxoisoindolin-4-yl)piperazin-1-yl)pentanoyl)pyrrolidin-3-yl)-2-fluoro-5-methoxybenzamide] are ≤ 50 nM and ≥ 80%.

For the origin of these results see patent publication US20230372498A1, “PLK1 SELECTIVE DEGRADATION INDUCING COMPOUND” (UPPTHERA, priority 2020, published 2023).
